Columns and labels:
[1] = test system: Parenchyma tissue from heads of romaine lettuce; experiment: Formation of callus tissue in lettuce parenchyma sections; assay type: cell-based; conditions: 7 days at 26 degrees in the dark, average initial weight 0.04 g
Excerpt: Note: Parenchyma tissue was obtained from heads of romaine lettuce. Cylinders measuring 5 mm in diameter and 20 mm in length were removed with a cork borer from the stalks of lettuce heads. The cylinders were sterilized in a 10% solution of commercial bleach (sodium hypochlorite). Three (3) mm wide circular sections were removed from the sterilized cylinders and 10 sections were placed in petri dishes containing various concentrations of auxins and MO formulated in sterilized agar/mineral salts/kinin media. The sections were incubated at 26 degrees in the dark for seven (7) days. At the end of the incubation period, the callus tissue in each treatment was weighed and the average weight of each section was recorded. The average initial weight of the sections was 0.04 g.

[2] = test system: explants of Nicotiana tobaccum, Ficus benjamina, Kalanchoe, and Hosta; experiment: Stage II (multiplication) micropropagation of explants; assay type: cell-based
Excerpt: MO produced an equivalent amount of growth at 10^−8 M and maximal growth at 10^−7 M.
Stage II and Stage III micropropagation of various plant species using IAA or MO as auxin source. Explants were placed in various concentrations of sterilized IAA or MO formulated in sterilized agar/mineral salts/kinnin media.

[3] = test system: cuttings from 12-day old bean plants; experiment: Root formation in bean cuttings planted in treated vermiculite; assay type: in vivo; conditions: for Average dry wt (grams) of root mass (14 days after treatment): 10 cuttings per treatment
Experimental: Legend to Table I. Ten (10) cuttings were used per treatment. Cuttings were obtained from 12-day old bean plants by excising each plant above the cotyledonery node. The cuttings were planted in vermiculite treated with various concentrations of the indicated compounds. Fourteen days after treatment, the portion of the cutting subtending the root mass was removed and dried for 48 hrs. at 50° C.

[4] = test system: hardwood trees; experiment: Wound healing (callus formation) on sawed-off branches of hardwood trees, lanolin paste; assay type: in vivo; conditions: final concentration 10^−5M, compared with IAA
Excerpt: Use of pure solutions of MO to stimulate healing in plants by aiding in the formation of callus tissue at the wound site. This would have the prophylactic effect of preventing infection in wounded trees. Application of MO in a solution, gel or lanolin paste preparation induces rapid formation of protective callus tissue. Refer to Table II for data summary. Large branches of hardwood trees were sawed off and treated with either IAA or MO prepared in lanolin paste.

[5] = test system: Hosta; experiment: Micropropagation of Hosta in Stage I, II and III media; assay type: cell-based
Excerpt: Photographic evidence showing the comparative response of explants to IAA and MO in Stage II and Stage III growth media is available on request. A description of the photos is provided herein.

[6] = test system: explants of various plant species; experiment: Stage III (rooting) micropropagation of explants; assay type: cell-based; conditions: Stage III (rooting) medium
Excerpt: Stage III micropropagation of various plant species using IAA or MO as auxin source. Explants were placed in various concentrations of sterilized IAA or MO formulated in sterilized agar/mineral salts/kinnin media

[7] = test system: cuttings from tomatoes, begonias, African violets, roses, soybeans and peas; experiment: Root formation in cuttings from various plants; assay type: in vivo
Excerpt: Use of MO and its solutions prepared by novel methods for stimulation of root formation in plant cuttings and as replacement for IAA or synthetic auxins in plant tissue culture. […] Refer to FIG. 2 for typical response of cuttings to test compounds and Table I for data summary.

[8] = test system: plants; experiment: Physiological (auxin) responses of plants compared with IAA; conditions: MO obtained from purified 3-Brox
Excerpt: It is well known that at suitable concentrations, IAA can stimulate the growth of excised stem segments, promote root development in cuttings, and in combination with another group of plant growth substances known as kinins, can regenerate intact plants from single cells or meristematic tissue.

[9] = Stage II (multiplication) medium

Row | Compound | Weight in grams of Callus tissue ([1]; 10^−4 moles/L) [g] | Weight in grams of Callus tissue ([1]; 10^−5 moles/L) [g] | Weight in grams of Callus tissue ([1]; 10^−6 moles/L) [g] | Weight in grams of Callus tissue ([1]; 10^−7 moles/L) [g] | Weight in grams of Callus tissue ([1]; 10^−8 moles/L) [g] | concentration required to produce maximal growth [2, 9] | Emergence of roots (No. of days after treatment) ([3]; 10^−4M) [days] | Average dry wt (grams) of root mass (14 days after treatment) ([3]; 10^−4M) [grams] | Emergence of roots (No. of days after treatment) ([3]; 10^−5M) [days] | Average dry wt (grams) of root mass (14 days after treatment) ([3]; 10^−5M) [grams] | Emergence of roots (No. of days after treatment) ([3]; 10^−6M) [days] | Average dry wt (grams) of root mass (14 days after treatment) ([3]; 10^−6M) [grams] | other results
1 | O=C(O)Cc1c[nH]c2ccccc12 [IAA, Indole-3-acetic acid] | 0.08 | 0.25 | 1.2 | 0.80 | 0.40 | 10^−5 M | 7 | 8 | 7 | 10 | 9 | 7 | 
2 | O=C(O)CCCc1c[nH]c2ccccc12 [IBA, indolebutyric acid] | 0.05 | 0.18 | 0.70 | 0.55 | 0.12 |  | 9 | 5 |  | 7 | 5 | 7 | 
3 | C=C1C(=O)Nc2ccccc21 [MO, 3-methyleneoxindole] | 0.02 | 0.15 | 1.5 | 1.95 | 1.75 | 10^−7 M |  |  |  |  | 4 | 11 | healing of wound by callus formation [4]: healed rapidly by forming callus tissue over the wound; effectiveness compared with synthetic auxins [5]: far more effective than the synthetic auxins; fold more effective than IAA and the synthetic auxins [6]: 1,000 fold; concentration producing growth equivalent to IAA at its most effective concentration [2, 9]: 10^−8 M; fold more effective than IAA and the synthetic auxins ([2]; Stage II medium): 1,000 fold; root formation compared with IAA, napthaleneacetic acid and indolebutyric acid [7]: more profuse roots in a much shorter time and at significantly lower concentrations; fold as effective as IAA in eliciting physiological responses [8]: 100-1000 fold; Emergence of roots (No. of days after treatment) ([3]; 10^−7M): 4 days; Average dry wt (grams) of root mass (14 days after treatment) ([3]; 10^−7M): 13 grams; Emergence of roots (No. of days after treatment) ([3]; 10^−8M): 6 days; Average dry wt (grams) of root mass (14 days after treatment) ([3]; 10^−8M): 10 grams
4 | O=C(O)Cc1cccc2ccccc12 [NAA, napthaleneacetic acid] | 0.06 | 0.15 | 0.85 | 0.60 | 0.20 |  | 8 | 5 | 9 | 7 | 8 | 2 | 
